Test results as given in US20210283261A1, “Compositions and Methods for Treating ALK-Mediated Cancer” (ICAHN SCHOOL OF MEDICINE AT MOUNT SINAI, priority 2017, published 2021).

Assays:
Format in all cases: cell-based
[1] = molecular target: T1, NPM-ALK fusion protein (Homo sapiens, UniProt Q9UM73); experiment: Western blot of NPM-ALK fusion protein levels in SU-DHL-1 cells; details: for significantly reduced ALK fusion protein levels (degraders vs negative controls) / effect on NPM-ALK fusion protein levels, concentration dependence: 16 h; for Dmax at 0.03 µM: read-out: ALK fusion protein degradation, SU-DHL-1 (30 nM); for effect on NPM-ALK fusion protein levels, concentration dependence: SU-DHL-1 cells, 1, 3, 10, 30 or 100 nM
T1 construct: endogenous in cells; host or cells: SU-DHL-1; the other entry of the earlier key: NPM1 (P06748, Nucleophosmin)
T1 sequence (Q9UM73 with tags, fused parts or gaps): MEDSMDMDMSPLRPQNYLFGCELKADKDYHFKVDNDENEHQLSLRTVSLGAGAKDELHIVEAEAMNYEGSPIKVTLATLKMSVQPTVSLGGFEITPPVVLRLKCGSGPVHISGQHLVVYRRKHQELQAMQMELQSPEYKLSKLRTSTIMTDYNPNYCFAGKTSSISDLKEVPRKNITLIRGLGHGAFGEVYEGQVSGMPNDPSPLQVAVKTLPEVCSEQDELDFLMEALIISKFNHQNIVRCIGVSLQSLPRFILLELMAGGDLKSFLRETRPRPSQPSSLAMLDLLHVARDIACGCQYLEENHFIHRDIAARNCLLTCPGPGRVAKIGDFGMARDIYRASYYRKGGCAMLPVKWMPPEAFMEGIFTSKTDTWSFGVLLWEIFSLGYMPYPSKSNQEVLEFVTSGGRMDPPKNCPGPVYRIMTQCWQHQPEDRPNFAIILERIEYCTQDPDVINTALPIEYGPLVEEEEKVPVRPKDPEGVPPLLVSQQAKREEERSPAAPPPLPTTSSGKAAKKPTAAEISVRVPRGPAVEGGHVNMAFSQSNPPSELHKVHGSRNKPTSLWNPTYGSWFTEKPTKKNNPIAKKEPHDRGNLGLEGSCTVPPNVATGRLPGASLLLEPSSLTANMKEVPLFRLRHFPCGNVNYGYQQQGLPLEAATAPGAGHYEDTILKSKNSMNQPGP
Protocol: (§1) Cells were cultured in a 37° C. incubator with 5% CO2.
(§2) Cells were washed with cold PBS once and lysed in 1× Laemmli loading buffer directly. […] Membrane was blocked in 5% milk in Tris-buffered saline and Tween 20 (TBST) for 1 h at room temperature, followed by incubation with a primary antibody overnight at 4° C., and a horseradish peroxidase (HRP)-conjugated secondary antibody for 1 h at room temperature. The membrane was imaged by a ChemiDoc MP imaging system (BIO-RAD). Antibodies against GAPDH (abeam), Phospho-ALK (Tyr1507), ALK (Cell Signaling Technology), Tubulin (Santa Cruz) were purchased commercially.
SU-DHL-1 suspension cells were seeded in 12-well plates at a density of 6×10^5/mL and treated with DMSO or indicated compounds at 30 nM or 100 nM for indicated time.
SU-DHL-1 cells were seeded in 12-well plates at a density of 4×10^5/mL and treated with DMSO or indicated serial dilutions of compounds for 16 h. The NPM-ALK fusion protein levels were determined by Western blot and normalized against GPADH (right panel).

[2] = molecular target: T2, ALK fusion protein (Homo sapiens, UniProt Q9UM73); experiment: Western blot of ALK fusion protein levels in NCI-H3122 cells; details: for significantly reduced ALK fusion protein levels (degraders vs negative controls): 16 h; for Dmax at 0.5 µM: NCI-H3122, NCI-H3122 cells, read-out: ALK fusion protein degradation, NCI-H3122 (500 nM)
T2 construct: endogenous in cells; host or cells: NCI-H3122; the other entry of the earlier key: EML4 (Q9HC35, Echinoderm microtubule-associated protein-like 4)
T2 sequence (Q9UM73 with tags, fused parts or gaps): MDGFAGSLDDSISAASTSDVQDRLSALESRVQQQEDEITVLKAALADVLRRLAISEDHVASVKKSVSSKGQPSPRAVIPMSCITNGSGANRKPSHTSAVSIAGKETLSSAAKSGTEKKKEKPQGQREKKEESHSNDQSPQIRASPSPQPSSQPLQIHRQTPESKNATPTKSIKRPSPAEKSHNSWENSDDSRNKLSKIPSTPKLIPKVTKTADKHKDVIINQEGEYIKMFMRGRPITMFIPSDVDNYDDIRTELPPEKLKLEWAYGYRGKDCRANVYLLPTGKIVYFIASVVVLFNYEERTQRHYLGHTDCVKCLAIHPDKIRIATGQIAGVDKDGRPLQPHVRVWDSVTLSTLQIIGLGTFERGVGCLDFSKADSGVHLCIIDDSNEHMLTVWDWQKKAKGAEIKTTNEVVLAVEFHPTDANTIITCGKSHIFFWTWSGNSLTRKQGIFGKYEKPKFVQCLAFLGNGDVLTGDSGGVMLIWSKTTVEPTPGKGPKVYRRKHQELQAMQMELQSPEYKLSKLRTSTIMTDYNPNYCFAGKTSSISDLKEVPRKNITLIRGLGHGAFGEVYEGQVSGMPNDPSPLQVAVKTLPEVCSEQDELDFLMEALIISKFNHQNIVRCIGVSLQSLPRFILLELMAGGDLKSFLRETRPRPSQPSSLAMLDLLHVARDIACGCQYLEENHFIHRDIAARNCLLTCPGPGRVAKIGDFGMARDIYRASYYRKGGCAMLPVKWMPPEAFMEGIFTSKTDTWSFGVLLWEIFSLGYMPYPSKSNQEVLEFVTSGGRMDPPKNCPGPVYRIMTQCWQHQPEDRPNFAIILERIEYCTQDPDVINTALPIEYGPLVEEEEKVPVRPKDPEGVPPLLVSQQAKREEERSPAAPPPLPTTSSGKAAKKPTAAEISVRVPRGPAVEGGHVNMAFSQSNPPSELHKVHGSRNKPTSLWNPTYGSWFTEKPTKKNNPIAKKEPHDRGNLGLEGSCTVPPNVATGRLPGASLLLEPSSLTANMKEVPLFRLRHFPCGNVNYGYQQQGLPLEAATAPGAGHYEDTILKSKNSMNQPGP
Protocol: SU-DHL-1, NCI-H3122 and NCI-H2228 cells were cultured in RPMI-1640 medium supplemented with 10% fetal bovine serum, 50 μg/mL penicillin and streptomycin. Cells were cultured in a 37° C. incubator with 5% CO2.
Cells were washed with cold PBS once and lysed in 1× Laemmli loading buffer directly. Lysates were heated at 99° C. for […], and resolved on 4-15% precast SDS-PAGE (BIO-RAD) and transferred onto PVDF membrane. Membrane was blocked in 5% milk in Tris-buffered saline and Tween 20 (TBST) for 1 h at room temperature, followed by incubation with a primary antibody overnight at 4° C., and a horseradish peroxidase (HRP)-conjugated secondary antibody for 1 h at room temperature. The membrane was imaged by a ChemiDoc MP imaging system (BIO-RAD). Antibodies against GAPDH (abeam), Phospho-ALK (Tyr1507), ALK (Cell Signaling Technology), Tubulin (Santa Cruz) were purchased commercially. […]

[3] = system: SU-DHL-1 cells; experiment: Cell viability assay in SU-DHL-1 cells; details: Homo sapiens, 60 h, 2.5 days, CellTiter-Glo, read-out: GI50 (drug concentration that results in 50% growth inhibition)
Protocol: SU-DHL-1 cells were seeded in 96-well plates at a density of 1×10^4 cells per well, in triplicate. Treated cells with DMSO or indicated serial dilutions of compounds for 2.5 days. Cell growth/survival was measured by using the CellTiter-Glo luminescent cell viability assay following the manufacturer's instructions (Promega) or CCK8 cell viability assay (Sigma). Data was analyzed by using the GraphPad Prism software, Error bars represent ±SD for triplicate experiments.
SU-DHL-1 cells were seeded in 96-well plates at a density of 1×10^4 cells per well, in triplicate. Treated cells with DMSO or indicated serial dilutions of compounds for 2.5 days. Cell growth/survival was measured by using the CellTiter-Glo luminescent cell viability assay. Data was analyzed by using the GraphPad Prism software, Error bars represent ±SD for triplicate experiments (left panel).
SU-DHL-1 cells were seeded in 96-well plates at a density of 5000 cells per well, in triplicate. The cells were treated with DMSO or indicated serial dilutions of compounds for 3 days. Cell growth was measured using the CellTiter-Glo luminescent cell viability assay. Data were analyzed using the GraphPad Prism.
SU-DHL-1 and NCI-3122 cells were treated with DMSO or indicated serial dilutions of compounds for 3 days. Data were analyzed using the GraphPad Prism.

[4] = system: ALK; experiment: Characterization of ALK degraders in ALCL and NSCLC cells (summary); details: summary statement
Excerpt: Specific exemplary ALK degraders/disruptors were characterized in various different anaplastic large cell lymphoma (ALCL) cells and non-small cell lung cancer (NSCLC) cells (Examples 4-19, FIGS. 1-18). […] This efficacy in suppressing ALK expression and ALK activity correlated with efficacy in inhibiting cancer cell proliferation.

[5] = molecular target: T3, EML4-ALK v3 fusion protein (Homo sapiens, UniProt Q9UM73); experiment: Western blot of EML4-ALK v3 fusion protein levels in NCI-H2228 cells; details: 16 h; for effect on EML4-ALK fusion protein levels, concentration dependence: NCI-H2228 cells, 1, 3, 10, 30 or 100 nM
T3 construct: endogenous in cells; host or cells: NCI-H2228
T3 sequence (Q9UM73 1058-1620 limits assumed): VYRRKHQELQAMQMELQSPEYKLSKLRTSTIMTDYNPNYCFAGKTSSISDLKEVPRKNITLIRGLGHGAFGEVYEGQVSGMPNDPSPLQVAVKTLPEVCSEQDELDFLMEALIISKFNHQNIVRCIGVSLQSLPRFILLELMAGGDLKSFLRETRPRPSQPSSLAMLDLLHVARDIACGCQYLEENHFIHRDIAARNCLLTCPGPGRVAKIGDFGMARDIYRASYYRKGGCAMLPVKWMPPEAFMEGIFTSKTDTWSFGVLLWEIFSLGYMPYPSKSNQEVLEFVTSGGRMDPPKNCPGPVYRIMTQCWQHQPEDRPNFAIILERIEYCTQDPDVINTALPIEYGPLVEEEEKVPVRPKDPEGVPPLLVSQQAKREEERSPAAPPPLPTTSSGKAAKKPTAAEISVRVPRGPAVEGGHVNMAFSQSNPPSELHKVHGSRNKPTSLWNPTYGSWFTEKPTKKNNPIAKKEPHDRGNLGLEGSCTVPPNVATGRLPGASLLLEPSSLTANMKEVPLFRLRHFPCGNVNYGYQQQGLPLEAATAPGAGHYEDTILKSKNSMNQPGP
Protocol: as §1, §2
Cells were 70% confluent and treated with DMSO or indicated serial dilutions of compounds for 16 h. The EML4-ALK fusion protein levels were determined by Western blot and normalized against GPADH (right panel).

[6] = SU-DHL-1 cells, 30 nM, Western blot

SMILES	significantly reduced ALK fusion protein levels (degraders vs negative controls) ([1]; SU-DHL-1 cells)	significantly reduced ALK fusion protein levels (degraders vs negative controls) ([2]; NCI-H3122 cells)	Dmax at 0.03 µM [1, 6] [%]	Dmax at 0.5 µM ([2]; 500 nM, Western blot) [%]	also measured
Cc1cc(Nc2ncc(Cl)c(Nc3ccccc3S(=O)(=O)C(C)C)n2)c(OC(C)C)cc1C1CCN(CC(=O)NCCOCCOCCOCCOCCNc2cccc3c2C(=O)N(C2CCC(=O)NC2=O)C3=O)CC1 (stereo not shown) [CZ40-53, 2-(4-(4-((5-Chloro-4-((2-(isopropylsulfonyl)phenyl)amino)pyrimidin-2-yl)amino)-5-isopropoxy-2-methylphenyl)piperidin-1-yl)-N-(14-((2-(2,6-dioxopiperidin-3-yl)-1,3-dioxoisoindolin-4-yl)amino)-3,6,9,12-tetraoxatetradecyl)acetamide]			> 80		GI50 [3]: < 40 nM; suppressing both ALK expression and ALK activity [4]: especially effective
Cc1cc(Nc2ncc(Cl)c(Nc3ccccc3S(=O)(=O)C(C)C)n2)c(OC(C)C)cc1C1CCN(CC(=O)NCCCCCCCCC(=O)N[C@H](C(=O)N2C[C@H](O)C[C@H]2C(=O)NCc2ccc(-c3scnc3C)cc2)C(C)(C)C)CC1 [CZ40-92, (2S,4R)-1-((S)-2-(9-(2-(4-(4-((5-Chloro-4-((2-(isopropylsulfonyl)phenyl)amino)pyrimidin-2-yl)amino)-5-isopropoxy-2-methylphenyl)piperidin-1-yl)acetamido)nonanaimdo)-3,3-dimethylbutanoyl)-4-hydroxy-N-(4-(4-methylthiazol-5-yl)benzyl)pyrrolidine-2-carboxamide]			< 20		
Cc1cc(Nc2ncc(Cl)c(Nc3ccccc3S(=O)(=O)C(C)C)n2)c(OC(C)C)cc1C1CCN(CC(=O)NCCCCCCCCCC(=O)N[C@H](C(=O)N2C[C@H](O)C[C@H]2C(=O)NCc2ccc(-c3scnc3C)cc2)C(C)(C)C)CC1 [CZ40-93]			< 20		
Cc1cc(Nc2ncc(Cl)c(Nc3ccccc3S(=O)(=O)C(C)C)n2)c(OC(C)C)cc1C1CCN(CC(=O)NCCCCCCCCCCC(=O)NC(C(=O)N2CC(O)CC2C(=O)NCc2ccc(-c3scnc3C)cc2)C(C)(C)C)CC1 [CZ40-94, (2S,4R)-1-((S)-2-((11-(2-(4-(4-((5-Chloro-4-((2-(isopropylsulfonyl)phenyl)amino)pyrimidin-2-yl)amino)-5-isopropoxy-2-methylphenyl)piperidin-1-yl)acetamido)undecanamido)-3,3-dimethylbutanoyl)-4-hydroxy-N-(4-(4-methylthiazol-5-yl)benzyl)pyrrolidine-2-carboxamide]					ALK fusion protein degradation, SU-DHL-1 (30 nM) [1, 6]: + (Protein degradation 20-80%)
Cc1cc(Nc2ncc(Cl)c(Nc3ccccc3S(=O)(=O)C(C)C)n2)c(OC(C)C)cc1C1CCN(CC(=O)NCCNc2cccc3c2C(=O)N(C2CCC(=O)N(C)C2=O)C3=O)CC1 (stereo not drawn) [CZ47-40, 2-(4-(4-((5-Chloro-4-((2-(isopropylsulfonyl)phenyl)amino)pyrimidin-2-yl)amino)-5-isopropoxy-2-methylphenyl)piperidin-1-yl)-N-(2-((2-(l-methyl-2,6-dioxopiperidin-3-yl)-1,3-dioxoisoindolin-4-yl)amino)ethyl)acetamide]				< 20	effect on EML4-ALK fusion protein levels, concentration dependence [5]: no significant effect; effect on NPM-ALK fusion protein levels, concentration dependence [1]: no significant effect
Cc1cc(Nc2ncc(Cl)c(Nc3ccccc3S(=O)(=O)C(C)C)n2)c(OC(C)C)cc1C1CCNCC1 [ceritinib, reference compound]					effect on ALK protein levels ([5]; NCI-H2228 cells, 100 nM): no distinct effect; effect on EML4-ALK fusion protein levels, concentration dependence [5]: no significant effect; effect on NPM-ALK fusion protein levels ([1]; SU-DHL-1 cells, 30 nM or 100 nM): no effect; effect on NPM-ALK fusion protein levels, concentration dependence [1]: no significant effect

Now from value to molecule, other results behind:

significantly reduced ALK fusion protein levels (degraders vs negative controls) ([1]; SU-DHL-1 cells)	significantly reduced ALK fusion protein levels (degraders vs negative controls) ([2]; NCI-H3122 cells)	Dmax at 0.03 µM [1, 6] [%]	Dmax at 0.5 µM ([2]; 500 nM, Western blot) [%]	SMILES	also measured
not	not			Cc1cc(Nc2ncc(Cl)c(Nc3ccccc3S(=O)(=O)C(C)C)n2)c(OC(C)C)cc1C1CCN(C(=O)COCCOCC(=O)N[C@H](C(=O)N2CC(O)C[C@H]2C(=O)NCc2ccc(-c3scnc3C)cc2)C(C)(C)C)CC1 (stereo in doubt) [HC58-110, (2S,4S)-1-((S)-2-(2-(2-(2-(4-(4-((5-Chloro-4-((2-(isopropylsulfonyl)phenyl)amino)pyrimidin-2-yl)amino)-5-isopropoxy-2-methylphenyl)piperidin-1-yl)-2-oxoethoxy)ethoxy)acetamido)-3,3-dimethylbutanoyl)-4-hydroxy-N-(4-(4-methylthiazol-5-yl)benzyl)pyrrolidine-2-carboxamide]	ALK fusion protein degradation, NCI-H3122 (500 nM) ([2]; NCI-H3122 cells, 500 nM, Western blot): − (Protein degradation <20%)
not	not		< 20	Cc1cc(Nc2ncc(Cl)c(Nc3ccccc3S(=O)(=O)C(C)C)n2)c(OC(C)C)cc1C1CCN(C(=O)CCCC(=O)N[C@H](C(=O)N2C[C@@H](O)C[C@H]2C(=O)NCc2ccc(-c3scnc3C)cc2)C(C)(C)C)CC1 [HC58-111, (2S,4S)-1-((S)-2-(5-(4-(4-((5-Chloro-4-((2-(isopropylsulfonyl)phenyl)amino)pyrimidin-2-yl)amino)-5-isopropoxy-2-methylphenyl)piperidin-1-yl)-5-oxopentanamido)-3,3-dimethylbutanoyl)-4-hydroxy-N-(4-(4-methylthiazol-5-yl)benzyl)pyrrolidine-2-carboxamide]	
not	not		< 20	Cc1cc(Nc2ncc(Cl)c(Nc3ccccc3S(=O)(=O)C(C)C)n2)c(OC(C)C)cc1C1CCN(C(=O)CCCCC(=O)N[C@H](C(=O)N2C[C@@H](O)C[C@H]2C(=O)NCc2ccc(-c3scnc3C)cc2)C(C)(C)C)CC1 [HC58-112, (2S,4S)-1-((S)-2-(6-(4-(4-((5-chloro-4-((2-(isopropylsulfonyl)phenyl)amino)pyrimidin-2-yl)amino)-5-isopropoxy-2-methylphenyl)piperidin-1-yl)-6-oxohexanamido)-3,3-dimethylbutanoyl)-4-hydroxy-N-(4-(4-methylthiazol-5-yl)benzyl)pyrrolidine-2-carboxamide]	
